Molecules are shown by their SMILES.

Experimental findings from patent US20080274892A1, “Novel Haloalkylsulfonanilide Derivative, Herbicide, and Method of Use Thereof” (priority 2005, published 2008) are described below.

In data set [1] the test system is bulrush. The data set is described as follows: Test Example 4: low dosage test for rice paddy weeds. Format: in vivo, Scirpus juncoides. Particulars: 300 g/ha as an active ingredient; plants treated at the one leaf stage; 21 days after treatment; vs untreated control. The essentials: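 Bulrush sown in clay loam pots, flooded to 5 cm water in a hot house, treated at the one-leaf stage with formulated compound at 300 g/ha. Efficacy scored 0–4 against untreated control 21 days after treatment (4 = 90–100%, 0 = 0% inhibition).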

The subject of data set [2] is false pimpernel. In words: Test Example 1: herbicidal efficacy on rice paddy weeds pre-emergence. Format: in vivo, Lindernia pyxidaria. Conditions: 21 days.
In data set [3] the test system is bulrush. The description is as above. Particulars: 21 days. In kind it is in vivo, Scirpus juncoides.
In data set [4] the test system is paddy rice plant (cultivar: Nihonbare). In words: Test Example 3: phytotoxicity test for transplanted paddy rice plant. Format: in vivo. Conditions: transplanted rice, 21 days after treatment. The essentials: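 Clay loam soil was placed in a 75 cm^2 plastic pot and flooded to a water depth of 5 cm. Two Nihonbare paddy rice plants at the two-leaf stage were transplanted 1 cm deep and grown in a hot house. After treatment, pots stayed in the hot house for 21 days, and phytotoxicity was then graded against an untreated control.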

Data set [5] has as its system transplanted paddy rice plant and Bulrush. In words: Test Example 5: selectivity between transplanted paddy rice plant and weeds. Format: in vivo. Conditions: (highest dosage with no phytotoxicity to paddy rice)/(lowest dosage with effective level 4 on Bulrush); rice 3000-100 g/ha, Bulrush 300-10 g/ha; 21 days. The essentials:
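Transplanted paddy rice was treated at 3000, 1000, 300 and 100 g/ha active ingredient for phytotoxicity, and post-emergence bulrush at 300, 100, 30 and 10 g/ha. Plants were kept in a hothouse for 21 days. Growth inhibition versus untreated control was scored 0–4 (0%, 1–39%, 40–69%, 70–89%, 90–100%).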

The next data set relates to barnyard glass. The data set is described as follows: Test Example 2: herbicidal efficacy on rice paddy weeds post-emergence. In kind it is in vivo, Echinochloa crus-galli. Conditions: post-emergence, one leaf stage, 21 days after treatment. The essentials:
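Plastic pots of 75 cm^2 were filled with clay loam soil and sown with barnyard glass and bulrush seeds, then topped with 75 cm^3 soil containing false pimpernel seeds. The pots were flooded to 5 cm water depth and held in a hot house. Twenty-one days after treatment, herbicidal efficacy was graded against an untreated control.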

Data set [6] relates to bulrush. The description is as above. Format: in vivo, Scirpus juncoides. Conditions: post-emergence, one leaf stage, 21 days after treatment.
Data set [7] concerns false pimpernel. The data set is described as above. In kind it is in vivo, Lindernia pyxidaria. Conditions: post-emergence, one leaf stage, 21 days after treatment.
Setting [8] is: dosage 1000 g/ha, treated 5 days after transplantation.

As to `CCCC1(CC)CN(Cc2ccccc2N(C(=O)OCC(C)C)S(=O)(=O)C(F)(F)F)C(=O)O1` (stereo not shown) [1-132], the “Herbicide effect to Bulrush” value with bulrush [1] is 4 (90%-100% of herbicidal efficacy or phytotoxicity). Besides, the “False pimpernel pre (herbicidal efficacy grade)” value (“False pimpernel pre” below) with false pimpernel [2] (dosage 1000 g/ha) is 4 (90%-100% of herbicidal efficacy or phytotoxicity). Moreover, the “Bulrush pre (herbicidal efficacy grade)” value in the data set on bulrush [3] (dosage 1000 g/ha) is 4 (90%-100% of herbicidal efficacy or phytotoxicity). In addition, the “Phytotoxicity to paddy rice” value in data set [4] (setting [8]) was 1 (1%-39% of herbicidal efficacy or phytotoxicity). Besides, in data set [5], the “Selective Index” value is reported as 10. The “Burnyard grass post (herbicidal efficacy grade)” value (“Burnyard grass post” for short) with barnyard glass (dosage 1000 g/ha) is reported as 4 (90%-100% of herbicidal efficacy or phytotoxicity). For the same molecule, the “Bulrush post (herbicidal efficacy grade)” value in the data set with bulrush [6] (dosage 1000 g/ha) is given as 4 (90%-100% of herbicidal efficacy or phytotoxicity). Besides, the “False pimpernel post (herbicidal efficacy grade)” value (from here on “False pimpernel post”) in the data set on false pimpernel [7] (dosage 1000 g/ha) was 4 (90%-100% of herbicidal efficacy or phytotoxicity).

`CCC1(C(C)C)CN(Cc2ccccc2N(C(=O)OCC(C)C)S(=O)(=O)C(F)(F)F)C(=O)O1` (stereo not shown) [1-133]: the “Herbicide effect to Bulrush” value in the data set on bulrush [1] was 4 (90%-100% of herbicidal efficacy or phytotoxicity). For the same molecule, the “False pimpernel pre” value in the data set on false pimpernel [2] (dosage 1000 g/ha) is 4 (90%-100% of herbicidal efficacy or phytotoxicity). Besides, the “Bulrush pre (herbicidal efficacy grade)” value with bulrush [3] (dosage 1000 g/ha) was 4 (90%-100% of herbicidal efficacy or phytotoxicity). Also, the “Phytotoxicity to paddy rice” value in data set [4] (setting [8]) is 1 (1%-39% of herbicidal efficacy or phytotoxicity). In addition, the “Selective Index” value in data set [5] stood at 10. The “Burnyard grass post” value in the data set on barnyard glass (dosage 1000 g/ha) is 4 (90%-100% of herbicidal efficacy or phytotoxicity). In the data set with bulrush [6] (dosage 1000 g/ha), the “Bulrush post (herbicidal efficacy grade)” value is 4 (90%-100% of herbicidal efficacy or phytotoxicity). Moreover, in the data set on false pimpernel [7] (dosage 1000 g/ha), the “False pimpernel post” value is recorded as 4 (90%-100% of herbicidal efficacy or phytotoxicity).

Take `CCC1(CC)CN(Cc2ccccc2N(C(=O)OCCOC)S(=O)(=O)C(F)(F)F)C(=O)O1` [1-134]: the “Herbicide effect to Bulrush” value in the data set with bulrush [1] is reported as 4 (90%-100% of herbicidal efficacy or phytotoxicity). In addition, the “False pimpernel pre” value with false pimpernel [2] (dosage 1000 g/ha) is 4 (90%-100% of herbicidal efficacy or phytotoxicity). The “Bulrush pre (herbicidal efficacy grade)” value in the data set on bulrush [3] (dosage 1000 g/ha) is given as 4 (90%-100% of herbicidal efficacy or phytotoxicity). Moreover, in data set [4] (setting [8]), the “Phytotoxicity to paddy rice” value is reported as 1 (1%-39% of herbicidal efficacy or phytotoxicity). The “Selective Index” value in data set [5] is on record as 10. The “Burnyard grass post” value in the data set on barnyard glass (dosage 1000 g/ha) is 4 (90%-100% of herbicidal efficacy or phytotoxicity). For the same molecule, the “Bulrush post (herbicidal efficacy grade)” value in the data set with bulrush [6] (dosage 1000 g/ha) is recorded as 4 (90%-100% of herbicidal efficacy or phytotoxicity). In addition, the “False pimpernel post” value in the data set with false pimpernel [7] (dosage 1000 g/ha) is 4 (90%-100% of herbicidal efficacy or phytotoxicity).

On to `CC1(C(F)(F)F)CN(Cc2ccccc2NS(=O)(=O)C(F)(F)F)C(=O)O1` (stereo not shown) [1-135], for which the “Herbicide effect to Bulrush” value with bulrush [1] is 3 (70%-89% of herbicidal efficacy or phytotoxicity). For the same molecule, in the data set on false pimpernel [2] (dosage 300 g/ha), the “False pimpernel pre” value is reported as 4 (90%-100% of herbicidal efficacy or phytotoxicity). Besides, the “Bulrush pre (herbicidal efficacy grade)” value in the data set on bulrush [3] (dosage 300 g/ha) is listed as 4 (90%-100% of herbicidal efficacy or phytotoxicity). Further, the “Phytotoxicity to paddy rice” value in data set [4] (dosage 300 g/ha) is recorded as 1 (1%-39% of herbicidal efficacy or phytotoxicity). The “Selective Index” value in data set [5] stood at 3. In the data set with barnyard glass (dosage 300 g/ha), the “Burnyard grass post” value is 2 (40%-69% of herbicidal efficacy or phytotoxicity). Further, the “Bulrush post (herbicidal efficacy grade)” value with bulrush [6] (dosage 300 g/ha) was 4 (90%-100% of herbicidal efficacy or phytotoxicity). In the data set on false pimpernel [7] (dosage 300 g/ha), the “False pimpernel post” value was 4 (90%-100% of herbicidal efficacy or phytotoxicity).

Regarding `CC(C)COC(=O)N(c1ccccc1CN1CC(C)(C(F)(F)F)OC1=O)S(=O)(=O)C(F)(F)F` (stereo not shown) [1-136], the “Herbicide effect to Bulrush” value with bulrush [1] is recorded as 4 (90%-100% of herbicidal efficacy or phytotoxicity). In addition, the “False pimpernel pre” value in the data set on false pimpernel [2] (dosage 1000 g/ha) is on record as 4 (90%-100% of herbicidal efficacy or phytotoxicity). Moreover, in the data set on bulrush [3] (dosage 1000 g/ha), the “Bulrush pre (herbicidal efficacy grade)” value was 4 (90%-100% of herbicidal efficacy or phytotoxicity). In data set [4] (setting [8]), the “Phytotoxicity to paddy rice” value was 1 (1%-39% of herbicidal efficacy or phytotoxicity). Also, in data set [5], the “Selective Index” value was determined as 10. Moreover, the “Burnyard grass post” value with barnyard glass (dosage 1000 g/ha) is reported as 4 (90%-100% of herbicidal efficacy or phytotoxicity). For the same molecule, in the data set on bulrush [6] (dosage 1000 g/ha), the “Bulrush post (herbicidal efficacy grade)” value is recorded as 4 (90%-100% of herbicidal efficacy or phytotoxicity). The “False pimpernel post” value with false pimpernel [7] (dosage 1000 g/ha) is 4 (90%-100% of herbicidal efficacy or phytotoxicity).
